Experimental findings from ChEMBL document CHEMBL4602678, “Identification of Holrhizins E-Q Reveals the Diversity of Nonribosomal Lipopeptides in Paraburkholderia rhizoxinica” (J Nat Prod, 2020) are described below.

The subject of test [1] is Escherichia coli. Kind of test: Antimicrobial activity against Escherichia coli ATCC 35218 incubated for 24 hrs by Kirby-Bauer disk diffusion method. It counts as functional. The conditions noted are these: ATCC 35218, 24 h. On the technique in general: In agar diffusion tests the substance spreads into inoculated agar from a disc or well.
The test system of test [2] is Pseudomonas aeruginosa. Kind of test: Antimicrobial activity against Pseudomonas aeruginosa […] ATCC 27853 incubated for 24 hrs by Kirby-Bauer disk diffusion method. Type of test: functional.
Test [3] deals with Staphylococcus aureus. Kind of test: Antimicrobial activity against Staphylococcus aureus ATCC 29213 incubated for 24 hrs by Kirby-Bauer disk diffusion method. The conditions noted are these: ATCC 29213, 24 h. It counts as functional.
The test system of test [4] is Bacillus subtilis. Kind of test: Antimicrobial activity against Bacillus subtilis ATCC 6633 incubated for 24 hrs by Kirby-Bauer disk diffusion method. The note with it: ATCC 6633, 24 h. It counts as functional.
The subject of test [5] is Candida albicans. Description: Antimicrobial activity against Candida albicans incubated for 24 hrs by Kirby-Bauer disk diffusion method. Type of test: functional.
Test [6] relates to Rhizoctonia solani. Description: Antimicrobial activity against Rhizoctonia solani incubated for 24 hrs by Kirby-Bauer disk diffusion method. Type of test: functional.
In test [7] the test system is Aspergillus fumigatus. Kind of test: Antimicrobial activity against Aspergillus fumigatus incubated for 24 hrs by Kirby-Bauer disk diffusion method. Type of test: functional.
Test [8] concerns K562. Description: Cytotoxicity against human K562 cells incubated for 2 days by MTT assay. The conditions noted are these: K562, 48 h. It counts as functional, cell-based. In general terms: Tetrazolium dyes change colour on reduction, which living cells bring about.
Test [9] deals with MCF7. Description: Cytotoxicity against human MCF7 cells incubated for 2 days by MTT assay. Type of test: functional, cell-based. The note with it: MCF7, 48 h.
The subject of test [10] is MDA-MB-231. Kind of test: Cytotoxicity against human MDA-MB-231 cells incubated for 2 days by MTT assay. It counts as functional, cell-based. The note with it: MDA-MB-231, 48 h.
Test [11] deals with HepG2. Kind of test: Cytotoxicity against human HepG2 cells incubated for 2 days by MTT assay. It counts as functional, cell-based. The conditions noted are these: HepG2, 48 h.
Test [12] in a line: Cytotoxicity against human 2B cells incubated for 2 days by MTT assay. Type of test: cell-based. The conditions noted are these: 48 h.
Test [13] concerns A549. Kind of test: Cytotoxicity against human A549 cells incubated for 2 days by MTT assay. The note with it: A549, 48 h. Type of test: functional, cell-based.
Test [14] has as its system SGC-7901. Description: Cytotoxicity against human SGC7901 cells incubated for 2 days by MTT assay. It counts as functional, cell-based. The note with it: SGC-7901, 48 h.
Test [15] relates to HCT-116. Kind of test: Cytotoxicity against human HCT116 cells incubated for 2 days by MTT assay. Type of test: functional, cell-based. The note with it: HCT-116, 48 h.
A short description of test [16]: Cytotoxicity against human Kasumi cells incubated for 2 days by MTT assay. Type of test: functional, cell-based. The conditions noted are these: 48 h.

Where a SMILES comes first, the peptide text is derived from it. The star is where a group is joined. Octanoyl = CCCCCCCC(=O)*; Hexanoyl = CCCCCC(=O)* Some results are limits rather than exact numbers.

Broadly, the MIC is the lowest concentration found to suppress growth. Read a low MIC as inhibition by little substance. Broadly, the IC50 is the midpoint of a concentration-inhibition curve. A high value points to weaker potency. Turning to `CCCCCC(=O)N[C@H](C(=O)N[C@@H](Cc1ccccc1)C(=O)N[C@@H](CCC(=O)O)C(=O)N[C@H](C(=O)N[C@@H](C)C(=O)N[C@H](C(=O)O)[C@@H](C)CC)[C@@H](C)CC)C(C)C` (Hexanoyl-VFEIAI-OH), the MIC in test [1], in test [2], in test [3], in test [4], in test [5] and in test [6] was more than 100 µM throughout. The compound further yielded an MIC in test [7] of more than 100 µM. Besides, the IC50 in [8], in test [9], in test [10], in test [11], in [12] and in [13] was more than 40 µM each time. Also, the IC50 in [14], in test [15] and in test [16] was more than 40 µM each time.
As to `CCCCCC(=O)N[C@H](C(=O)N[C@@H](Cc1ccccc1)C(=O)N[C@@H](CCC(=O)O)C(=O)N[C@H](C(=O)N[C@@H](C)C(=O)N[C@@H](CC(C)C)C(=O)O)[C@@H](C)CC)C(C)C` (Hexanoyl-VFEIAL-OH), the MIC in [1], in [2], in test [3], in [4], in test [5] and in [6] was more than 100 µM each time. Also, the MIC in test [7] is more than 100 µM. The IC50 in test [8], in test [9], in test [10], in [11], in test [12] and in [13] was more than 40 µM each time. Besides, the half-maximal inhibitory concentration (IC50) in test [14], in [15] and in [16] was more than 40 µM in each case.
As for `CCCCCC(=O)N[C@H](C(=O)N[C@@H](Cc1ccccc1)C(=O)N[C@@H](CCC(=O)O)C(=O)N[C@@H](CC(C)C)C(=O)N[C@@H](C)C(=O)N[C@H](C(=O)O)[C@@H](C)CC)C(C)C` (Hexanoyl-VFELAI-OH), the MIC in test [1], in test [2], in test [3], in [4], in test [5] and in [6] was more than 100 µM throughout. The compound also had an MIC in [7] of more than 100 µM. The IC50 in test [8], in test [9], in [10], in test [11], in test [12] and in test [13] was more than 40 µM in each case. The IC50 in test [14], in [15] and in test [16] was more than 40 µM in each case.
For the compound `CCCCCC(=O)N[C@H](C(=O)N[C@@H](Cc1ccccc1)C(=O)N[C@@H](CCC(=O)O)C(=O)N[C@@H](CC(C)C)C(=O)N[C@@H](C)C(=O)N[C@@H](CC(C)C)C(=O)O)C(C)C` (Hexanoyl-VFELAL-OH), the minimum inhibitory concentration (MIC) in test [1], in test [2], in [3], in test [4], in [5] and in test [6] was more than 100 µM each time. In test [7], this compound yielded an MIC of more than 100 µM. The IC50 in test [8], in [9], in test [10], in [11], in [12] and in test [13] was more than 40 µM in each case. For the same compound, the IC50 in test [14], in test [15] and in [16] was more than 40 µM each time.
Take `CCCCCC(=O)N[C@H](C(=O)N[C@@H](Cc1ccccc1)C(=O)O)C(C)C` (Hexanoyl-Val-Phe-OH): the minimal inhibitory concentration (MIC) in [1], in [2], in test [3], in test [4], in test [5] and in test [6] was more than 100 µM in each case. The MIC in test [7] was more than 100 µM. Further, the IC50 in test [8], in [9], in test [10], in test [11], in test [12] and in [13] was more than 40 µM throughout. In addition, the IC50 in test [14], in test [15] and in test [16] was more than 40 µM throughout.
Regarding `CCCCCCCC(=O)N[C@H](C(=O)N[C@@H](Cc1ccccc1)C(=O)N[C@@H](CCC(=O)O)C(=O)N[C@H](C(=O)O)[C@@H](C)CC)C(C)C` (Octanoyl-VFEI-OH), the MIC in test [1], in [2], in test [3], in test [4], in test [5] and in test [6] was more than 100 µM each time. In test [7], the MIC is more than 100 µM. In addition, the IC50 in test [8], in test [9], in test [10], in [11], in test [12] and in test [13] was more than 40 µM throughout. Also, the IC50 in test [14], in [15] and in test [16] was more than 40 µM in each case.
Regarding `CCCCCCCC(=O)N[C@H](C(=O)N[C@@H](Cc1ccccc1)C(=O)N[C@@H](CCC(=O)O)C(=O)N[C@H](C(=O)N[C@@H](C)C(=O)N[C@H](C(=O)O)[C@@H](C)CC)[C@@H](C)CC)C(C)C` (Octanoyl-VFEIAI-OH), the MIC in test [1], in [2], in test [3], in test [4], in test [5] and in test [6] was more than 100 µM throughout. This compound also showed an MIC in test [7] of more than 100 µM. The IC50 in [8], in [9], in test [10], in test [11], in [12] and in test [13] was more than 40 µM in each case. For the same compound, the IC50 in [14], in [15] and in test [16] was more than 40 µM each time.
Take `CCCCCCCC(=O)N[C@H](C(=O)N[C@@H](Cc1ccccc1)C(=O)N[C@@H](CCC(=O)O)C(=O)N[C@H](C(=O)N[C@@H](C)C(=O)N[C@@H](CC(C)C)C(=O)O)[C@@H](C)CC)C(C)C` (Octanoyl-VFEIAL-OH): the MIC in test [1], in test [2], in test [3], in test [4], in [5] and in test [6] was more than 100 µM throughout. For the same compound, the MIC in test [7] is more than 100 µM. The IC50 in test [8], in [9], in [10], in test [11], in [12] and in test [13] was more than 40 µM throughout. Moreover, the IC50 in test [14], in test [15] and in [16] was more than 40 µM each time.
Take `CCCCCCCC(=O)N[C@H](C(=O)N[C@@H](Cc1ccccc1)C(=O)N[C@@H](CCC(=O)O)C(=O)N[C@H](C(=O)N[C@@H](C)C(=O)N[C@H](C(=O)O)C(C)C)[C@@H](C)CC)C(C)C` (Octanoyl-VFEIAV-OH): the MIC in [1], in test [2], in test [3], in test [4], in test [5] and in test [6] was more than 100 µM each time. In test [7], this compound came in with an MIC of more than 100 µM. Also, the IC50 in test [8], in test [9], in test [10], in test [11], in [12] and in [13] was more than 40 µM each time. Also, the IC50 in test [14], in test [15] and in test [16] was more than 40 µM each time.
For `CCCCCCCC(=O)N[C@H](C(=O)N[C@@H](Cc1ccccc1)C(=O)N[C@@H](CCC(=O)O)C(=O)N[C@H](C(=O)NCC(=O)N[C@H](C(=O)O)[C@@H](C)CC)[C@@H](C)CC)C(C)C` (Octanoyl-VFEIGI-OH), the MIC in [1], in [2], in [3], in test [4], in test [5] and in [6] was more than 100 µM in each case. Besides, the MIC in test [7] is more than 100 µM. Further, the IC50 in [8], in [9], in test [10], in test [11], in test [12] and in [13] was more than 40 µM in each case. For the same compound, the IC50 in test [14], in test [15] and in [16] was more than 40 µM each time.
Turning to `CCCCCCCC(=O)N[C@H](C(=O)N[C@@H](Cc1ccccc1)C(=O)N[C@@H](CCC(=O)O)C(=O)N[C@@H](CC(C)C)C(=O)O)C(C)C` (Octanoyl-VFEL-OH), the MIC in test [1], in test [2], in test [3], in [4], in [5] and in test [6] was more than 100 µM each time. The compound also gave an MIC in test [7] of more than 100 µM. In addition, the IC50 in test [8], in test [9], in test [10], in test [11], in test [12] and in test [13] was more than 40 µM in each case. In addition, the IC50 in test [14], in test [15] and in test [16] was more than 40 µM throughout.
